# According to patent publication US20240082191A1, “TOPICAL F[…] PHOSPHOLIPID COMPOUNDS” (EGIS GYÓGYSZERGYÁR ZRT., priority 2021, published 2024):
# Key:
# [1] = tested on: rats with CCI of sciatic nerve; experiment: Rat model of neuropathy: chronic constriction injury (CCI), paw withdrawal threshold with electronic von Frey device; format: in vivo; conditions: 16.66 mg/kg
# From the text: Furthermore, based on the article Bennett G J, at al (Pain, A peripheral mononeuropathy in rat that produces disorders of pain sensation like those seen in man. 1988 April; 33(1):87-107) we have developed a method for the examination of the compositions of the present invention. Thus, we have examined the compositions according to the present invention also with a different model for measuring the alleviation of the peripheral neuropathic pain also. Namely, we have carried out examinations on rats using Chronic constriction injury (CCI) model. Three weeks following nerve injury rats were assessed for hind paw mechanical withdrawal thresholds. The paw withdrawal threshold (PWT) was determined with an Electronic von Frey device according to the modified up-down method of Dixon (Efficient analysis of experimental observations, Annu Rev Pharmacol Toxicol. 1980; 20:441-62). […] The method and results are shown in example 3 and on FIG. 9. […]
# Briefly, under isoflurane anesthesia small blunt dissection was made into the skin of rat right thigh then three loosely constrictive ligatures were placed around common sciatic nerve (chronic constriction injury CCI). Three weeks following nerve injury rats were assessed for hind paw mechanical withdrawal thresholds. […]
# [2] = tested on: mice, allodynia; conditions: 2.5% aqueous solution, topical; cited from earlier work
# [3] = tested on: human patient; conditions: 2.5% aqueous solution, topical; cited from earlier work
# [4] = Pharmacokinetic studies of pregabalin (blood levels), oral and topical
structure (smiles),measurement,setting,value
CC(C)C[C@H](CN)CC(=O)O [pregabalin],Reduction of hypersensitivity after oral administration,[1],not able to reduce hypersensitivity
same,Time of maximum allodynia alleviating effect,[2],1 h
same,Duration of reduction of neuropathic pain in a human patient,[3],6 h
same,Blood levels after oral administration,"[4]; oral, 16.66 mg/kg",relatively high blood levels
same,Amount of pregabalin entering the bloodstream during topical treatment,[4]; topical treatment,very small amounts
